# Experimental data from PubChem BioAssay AID248 (DTP/NCI, 2004).
# Several values for one entry are separate records, joined by “and”; a condition that tells them apart may be missing. Equal entries are not always repeated. Toxic doses and inconclusive results are not listed.
# System: L1210 leukemia ip in BDF1 mice, survival T/C
# Assay: NCI In Vivo Anticancer Drug Screen. Data for tumor model L1210 Leukemia (intraperitoneal) in B6D2F1 (BDF1) mice
# Settings: endpoint: mean survival time, higher = longer survival
# Procedure, shortened: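 Antitumor effect is assessed in tumor-bearing animals. Survival in the compound arm is compared with a vehicle-dosed control arm and expressed as their quotient.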
# [1] = dose: 100.0 mg/kg/injection, schedule: Q04DX003 (ip), vehicle: Klucel (hydroxypropylcellulose) (HPC)
# [2] = dose: 200.0 mg/kg/injection, schedule: Q04DX003 (ip), vehicle: Klucel (hydroxypropylcellulose) (HPC)
# [3] = dose: 100.0 mg/kg/injection, schedule: Q01DX009 (ip), vehicle: Klucel (hydroxypropylcellulose) (HPC)
# [4] = dose: 400.0 mg/kg/injection, schedule: Q04DX003 (ip), vehicle: Klucel (hydroxypropylcellulose) (HPC)
# [5] = dose: 100.0 mg/kg/injection, schedule: Q01DX009 (ip), vehicle: saline with Tween-80
# [6] = dose: 100.0 mg/kg/injection, schedule: Q04DX003 (ip), vehicle: saline with Tween-80
# [7] = dose: 200.0 mg/kg/injection, schedule: Q01DX009 (ip), vehicle: saline with Tween-80
# [8] = dose: 200.0 mg/kg/injection, schedule: Q04DX003 (ip), vehicle: saline with Tween-80
# [9] = dose: 400.0 mg/kg/injection, schedule: Q01DX009 (ip), vehicle: saline with Tween-80
# [10] = dose: 400.0 mg/kg/injection, schedule: Q04DX003 (ip), vehicle: saline with Tween-80
# [11] = dose: 100.0 mg/kg/injection, schedule: Q04DX002 (ip), vehicle: saline with Tween-80
# [12] = dose: 200.0 mg/kg/injection, schedule: Q04DX002 (ip), vehicle: saline with Tween-80
# [13] = dose: 100.0 mg/kg/injection, schedule: Q01DX001 (ip), vehicle: saline
# [14] = dose: 200.0 mg/kg/injection, schedule: Q01DX001 (ip), vehicle: saline
# [15] = dose: 400.0 mg/kg/injection, schedule: Q01DX001 (ip), vehicle: saline
# [16] = dose: 100.0 mg/kg/injection, schedule: Q01DX001 (ip), vehicle: Klucel (hydroxypropylcellulose) (HPC)
# [17] = dose: 100.0 mg/kg/injection, schedule: Q01DX001 (ip), vehicle: carboxymethylcellulose (CMC)
# [18] = dose: 200.0 mg/kg/injection, schedule: Q01DX001 (ip), vehicle: carboxymethylcellulose (CMC)
# [19] = dose: 400.0 mg/kg/injection, schedule: Q01DX001 (ip), vehicle: carboxymethylcellulose (CMC)
# [20] = dose: 400.0 mg/kg/injection, schedule: Q04DX002 (ip), vehicle: saline with Tween-80
smiles,measurement,setting,value
O=c1[nH]nnc2ccccc12,T/C,"dose: 50.0 mg/kg/injection, schedule: Q01DX009 (ip), vehicle: saline",90 % of control
same,T/C,"dose: 100.0 mg/kg/injection, schedule: Q01DX009 (ip), vehicle: saline",90 % of control
same,T/C,"dose: 100.0 mg/kg/injection, schedule: Q04DX003 (ip), vehicle: alcohol",98 % of control
same,T/C,"dose: 200.0 mg/kg/injection, schedule: Q04DX003 (ip), vehicle: alcohol",100 % of control
Nc1ccc2c(c1)-n1cccc1C2=O,T/C,[1],104 % of control
same,T/C,[2],101 % of control
CCO/C=C1\SC(=S)N(c2ccc(OCC)cc2)C1=O,T/C,[3],98 % of control
same,T/C,[1],98 % of control
same,T/C,"dose: 200.0 mg/kg/injection, schedule: Q01DX009 (ip), vehicle: Klucel (hydroxypropylcellulose) (HPC)",95 % of control
same,T/C,[2],98 % of control
same,T/C,"dose: 400.0 mg/kg/injection, schedule: Q01DX009 (ip), vehicle: Klucel (hydroxypropylcellulose) (HPC)",98 % of control
same,T/C,[4],97 % of control
CC1CCCCC1(C)C1C=CC(=O)OC1(C)C (stereo not drawn),T/C,"dose: 25.0 mg/kg/injection, schedule: Q04DX003 (ip), vehicle: saline",97 % of control
same,T/C,"dose: 50.0 mg/kg/injection, schedule: Q04DX003 (ip), vehicle: saline",97 % of control
same,T/C,"dose: 100.0 mg/kg/injection, schedule: Q04DX003 (ip), vehicle: saline",97 % of control
O=C(Nc1ccccc1)c1cc(Cl)ccc1O,T/C,[5],95 % of control
same,T/C,[6],86 % of control
same,T/C,[7],95 % of control
same,T/C,[8],94 % of control
same,T/C,[9],95 % of control
same,T/C,[10],87 % of control
CC(=O)Nn1cnc2c(=S)nc[nH]c21,T/C,"dose: 20.0 mg/kg/injection, schedule: Q01DX009 (ip), vehicle: saline with Tween-80",108 % of control
same,T/C,"dose: 100.0 mg/kg/injection, schedule: Q01DX001 (ip), vehicle: saline with Tween-80",101 % of control
same,T/C,"dose: 177.0 mg/kg/injection, schedule: Q01DX001 (ip), vehicle: saline with Tween-80",106 % of control
same,T/C,"dose: 200.0 mg/kg/injection, schedule: Q01DX001 (ip), vehicle: saline with Tween-80",110 % of control
same,T/C,[7],93 % of control
same,T/C,"dose: 266.0 mg/kg/injection, schedule: Q01DX001 (ip), vehicle: saline with Tween-80",154 % of control
same,T/C,"dose: 400.0 mg/kg/injection, schedule: Q01DX001 (ip), vehicle: saline with Tween-80",118 % of control
S=C(SSSSC(=S)N1CCCCC1)N1CCCCC1,T/C,"dose: 50.0 mg/kg/injection, schedule: Q04DX003 (ip), vehicle: Klucel (hydroxypropylcellulose) (HPC)",97 % of control
same,T/C,[1],101 % of control
same,T/C,[2],92 % of control
same,T/C,[4],92 % of control
C=C(C(=O)OC)C(C(=O)OC)=C(N1CCCCC1)N1CCCCC1,T/C,[11],95 % of control
same,T/C,[12],95 % of control
C#CC(C)(O)CC (stereo not drawn),T/C,[13],100 % of control
same,T/C,[14],100 % of control
same,T/C,[15],103 % of control
CCCCCCCCCCCCCCCCCc1c(Cl)c(Cl)c(Cl)c(Cl)c1Cl,T/C,[16],90 % of control
c1cc2c3c(c1)-c1nc4ccccc4cc1CN3CCC2,T/C,[5],94 % of control
same,T/C,[7],105 % of control
same,T/C,[9],96 % of control
Cc1cc(Cl)c(N)[c]([Hg][I])c1F,T/C,"dose: 12.0 mg/kg/injection, schedule: Q01DX001 (ip), vehicle: Klucel (hydroxypropylcellulose) (HPC)",90 % of control
same,T/C,"dose: 25.0 mg/kg/injection, schedule: Q01DX001 (ip), vehicle: Klucel (hydroxypropylcellulose) (HPC)",86 % of control
same,T/C,"dose: 50.0 mg/kg/injection, schedule: Q01DX001 (ip), vehicle: Klucel (hydroxypropylcellulose) (HPC)",92 % of control
CCOC(=O)/C(C)=N\N=C(/CCOC)COC,T/C,"dose: 50.0 mg/kg/injection, schedule: Q01DX001 (ip), vehicle: saline",101 % of control
same,T/C,"dose: 50.0 mg/kg/injection, schedule: Q01DX009 (ip), vehicle: carboxymethylcellulose (CMC)",117 % of control
same,T/C,[13],101 % of control
same,T/C,[14],101 % of control
same,T/C,[15],95 % of control
same,T/C,"dose: 400.0 mg/kg/injection, schedule: Q01DX009 (ip), vehicle: carboxymethylcellulose (CMC)",94 % of control
COC(=O)C1=C(NC(=O)Nc2ccccc2)OC(C)(C)C1c1ccc(Cl)cc1 (stereo not drawn),T/C,[13],93 % of control
same,T/C,[14],89 % of control
same,T/C,[15],89 % of control
CCSC(SCC)C(SCC)C(O)C(O)C(O)CO (stereo not drawn),T/C,[17],106 % of control
same,T/C,[18],112 % of control
same,T/C,[19],114 % of control
O=C1/C(=C/c2ccco2)CCC/C1=C\c1ccco1,T/C,"dose: 100.0 mg/kg/injection, schedule: Q01DX001 (ip), vehicle: acetone",95 % of control
same,T/C,[11],92 % of control
same,T/C,"dose: 200.0 mg/kg/injection, schedule: Q01DX001 (ip), vehicle: acetone",87 % of control
same,T/C,[12],95 % of control
same,T/C,"dose: 400.0 mg/kg/injection, schedule: Q01DX001 (ip), vehicle: acetone",97 % of control
same,T/C,[20],98 % of control
O=C(COc1ccc(Cl)cc1)Nc1ccc(Br)cc1,T/C,"dose: 100.0 mg/kg/injection, schedule: Q04DX002 (ip), vehicle: gum acacia",97 % of control
same,T/C,"dose: 200.0 mg/kg/injection, schedule: Q04DX002 (ip), vehicle: gum acacia",106 % of control
same,T/C,"dose: 400.0 mg/kg/injection, schedule: Q04DX002 (ip), vehicle: gum acacia",95 % of control
O=C(CCCCCCCCCCBr)OCc1ccccc1,T/C,"dose: 100.0 mg/kg/injection, schedule: Q01DX001 (ip), vehicle: saline sonified",103 % of control
same,T/C,"dose: 200.0 mg/kg/injection, schedule: Q01DX001 (ip), vehicle: saline sonified",99 % of control
same,T/C,"dose: 400.0 mg/kg/injection, schedule: Q01DX001 (ip), vehicle: saline sonified",105 % of control
Nc1cc(Cl)c2[nH]cnc2n1,T/C,"dose: 33.0 mg/kg/injection, schedule: Q01DX009 (ip), vehicle: Klucel (hydroxypropylcellulose) (HPC)",179 % of control
same,T/C,"dose: 50.0 mg/kg/injection, schedule: Q01DX009 (ip), vehicle: Klucel (hydroxypropylcellulose) (HPC)",151 % of control and 159 % of control
same,T/C,"dose: 75.0 mg/kg/injection, schedule: Q01DX009 (ip), vehicle: Klucel (hydroxypropylcellulose) (HPC)",161 % of control
same,T/C,[16],118 % of control
same,T/C,[3],97 % of control
same,T/C,"dose: 133.0 mg/kg/injection, schedule: Q01DX001 (ip), vehicle: Klucel (hydroxypropylcellulose) (HPC)",119 % of control
same,T/C,"dose: 200.0 mg/kg/injection, schedule: Q01DX001 (ip), vehicle: Klucel (hydroxypropylcellulose) (HPC)",121 % of control
same,T/C,"dose: 300.0 mg/kg/injection, schedule: Q01DX001 (ip), vehicle: Klucel (hydroxypropylcellulose) (HPC)",122 % of control
Clc1ncnc2c1nnn2C1CCCC1,T/C,[13],101 % of control
same,T/C,[14],104 % of control
COc1ccc(C(=O)NC(=S)Nc2ccc(O)cc2)cc1,T/C,[5],97 % of control and 104 % of control
same,T/C,[11],98 % of control
same,T/C,[6],99 % of control
same,T/C,[7],108 % of control and 109 % of control
same,T/C,[12],104 % of control
same,T/C,[8],94 % of control
same,T/C,[9],98 % of control and 101 % of control
same,T/C,[20],95 % of control
same,T/C,[10],96 % of control
CCNP(=O)(OCC)OCC,T/C,"dose: 50.0 mg/kg/injection, schedule: Q01DX001 (ip), vehicle: carboxymethylcellulose (CMC)",94 % of control
same,T/C,[17],92 % of control
same,T/C,[18],94 % of control
same,T/C,[19],118 % of control
Nc1ccc(NC(=O)c2ccc3ccccc3c2O)c(Cl)c1,T/C,[1],94 % of control
same,T/C,[2],97 % of control
same,T/C,[4],94 % of control
CSc1ccc(NC(=O)NS(=O)(=O)c2ccc(C)cc2)cc1,T/C,[5],88 % of control and 91 % of control
same,T/C,[11],96 % of control
same,T/C,[6],95 % of control
same,T/C,[7],97 % of control and 91 % of control
same,T/C,[12],89 % of control
same,T/C,[8],89 % of control
same,T/C,[9],87 % of control
same,T/C,[20],100 % of control and 86 % of control
same,T/C,[10],90 % of control
